Test results as given in patent publication US10023543B2 (CELGENE QUANTICEL RESEARCH, INC., priority 2014, dated 2018).
Structures can show the parent of a compound that is named as a salt. Where two headings read alike, the source gives them in different places.

Tests used:
THP-1 (AML) cells = experiment: LSD1 CD11b cellular assay (flow cytometry); type: cell-based; conditions: Homo sapiens, THP-1, 96 h
Kasumi-1 = Kasumi-1 AML cell line proliferation assay (Cell-MTS assay); type: cell-based; conditions: Homo sapiens, 168 hours
Description: Colorimetric cellular assay to assess the ability of LSD-1 small molecule inhibitors to effect the proliferation of the established AML cancer cell line Kasumi-1.
This Cell-MTS assay is a 7-day plate based colorimetric assay which quantifies the amount of newly generated NADH in the presence and absence of test compound. These NADH levels are used as a proxy for the quantification of cancer cell proliferation.
The established cancer cell line Kasumi-1 with a verified p53 mutation were purchased from American Type Culture Collection (ATCC) and routinely passaged according to ATCC published protocols. For routine assay these cells were seeded at a density of 20,000 cells per 96-well. […] At the end of this compound incubation period, 80 μl of media is removed and 20 μL of CellTiter 96® AQueous Non-Radioactive Cell Proliferation Assay solution (Promega) is added. The cells are incubated until the OD490 is >0.6. IC50 values are calculated using the IDBS XLfit software package and include background subtracted OD490 values and normalization to DMSO controls.

[1] = CD11b expressing cells, 4 days, read-out: THP-1 IC50

IC50 (THP-1 (AML) cells; [1])	Compound	IC50 (Kasumi-1)	IC50 (THP-1 (AML) cells; read-out: THP-1 IC50 (μM))
< 0.1 µM	Cn1c(N2CCC(N)CC2)nc(-c2ccc(C#N)cc2)c(-c2cnn(CC(F)(F)F)c2)c1=O [Example 36, 4-{2-(4-amino-piperidin-1-yl)-1-methyl-6-oxo-5-[1-(2,2,2-trifluoro-ethyl)-1H-pyrazol-4-yl]-1,6-dihydro-pyrimidin-4-yl}-benzonitrile]	< 100 nM	–
< 0.1 µM	Cn1c(N2CCC(N)CC2)nc(-c2ccc(C#N)c(F)c2)c(-c2cnn(CC(F)(F)F)c2)c1=O [Example 34, 4-{2-(4-amino-piperidin-1-yl)-1-methyl-6-oxo-5-[1-(2,2,2-trifluoro-ethyl)-1H-pyrazol-4-yl]-1,6-dihydro-pyrimidin-4-yl}-2-fluoro-benzonitrile]	< 100 nM	–
< 0.1 µM	Cn1c(N2CCC(N)CC2)nc(-c2ccc(C#N)c(F)c2)c(-c2ccc3c(cnn3C)c2)c1=O [Example 35, 4-[2-(4-amino-piperidin-1-yl)-1-methyl-5-(1-methyl-1H-indazol-5-yl)-6-oxo-1,6-dihydro-pyrimidin-4-yl]-2-fluoro-benzonitrile]	< 100 nM	–
< 0.1 µM	Cn1cc2cc(-c3c(-c4ccc(C#N)c(F)c4)nc(N4CCCNCC4)n(C)c3=O)ccc2n1 [Example 66, 4-[2-[1,4]diazepan-1-yl-1-methyl-5-(2-methyl-2H-indazol-5-yl)-6-oxo-1,6-dihydro-pyrimidin-4-yl]-2-fluoro-benzonitrile]	< 100 nM	–
–	Cc1ccc(-c2c(-c3ccc(C#N)cc3)nc(N3CCC(N)CC3)n(C)c2=O)cc1 [Example 1, 4-(2-(4-aminopiperidin-1-yl)-1-methyl-6-oxo-5-p-tolyl-1,6-dihydropyrimidin-4-yl)benzonitrile, HCl salt]	< 100 nM	< 0.1 µM
< 0.1 µM	CNC1CCN(c2nc(-c3ccc(C#N)c(F)c3)c(-c3ccc4nn(C)cc4c3)c(=O)n2C)CC1 [Example 65, 2-fluoro-4-[1-methyl-2-(4-methylamino-piperidin-1-yl)-5-(2-methyl-2H-indazol-5-yl)-6-oxo-1,6-dihydro-pyrimidin-4-yl]-benzonitrile]	< 100 nM	–
< 0.1 µM	COc1ccc(-c2c(-c3ccc(C#N)cc3)nc(N3CCC(N)CC3)n(C)c2=O)cn1 [Example 3, 4-[2-(4-amino-piperidin-1-yl)-5-(6-methoxy-pyridin-3-yl)-1-methyl-6-oxo-1,6-dihydro-pyrimidin-4-yl]-benzonitrile]	< 100 nM	–
< 0.1 µM	COc1ccc(-c2c(-c3ccc(C#N)c(F)c3)nc(N3CCC(N)CC3)n(C)c2=O)cn1 [Example 8, 4-[2-(4-amino-piperidin-1-yl)-5-(6-methoxy-pyridin-3-yl)-1-methyl-6-oxo-1,6-dihydro-pyrimidin-4-yl]-2-fluoro-benzonitrile]	< 100 nM	–
< 0.1 µM	CN(C)C1CCN(c2nc(-c3ccc(C#N)c(F)c3)c(-c3ccc4nn(C)cc4c3)c(=O)n2C)CC1 [Example 71, 4-[2-(4-dimethylamino-piperidin-1-yl)-1-methyl-5-(2-methyl-2H-indazol-5-yl)-6-oxo-1,6-dihydro-pyrimidin-4-yl]-2-fluoro-benzonitrile]	< 100 nM	–
< 0.1 µM	Cn1cc2cc(-c3c(-c4ccc(C#N)cc4)nc(N4CCC(N)CC4)n(C)c3=O)ccc2n1 [Example 24, 4-[2-(4-aminopiperidyl)-1-methyl-5-(2-methyl(2H-indazol-5-yl))-6-oxohydropyrimidin-4-yl]benzenecarbonitrile]	< 100 nM	–
–	COc1ccc(-c2c(-c3ccc(C#N)cc3)nc(N3CCC(N)CC3)n(C)c2=O)cc1F [Example 5]	< 100 nM	< 0.1 µM
< 0.1 µM	COc1ccc(-c2c(-c3ccc(C#N)c(F)c3)nc(N3CCC(N)CC3)n(C)c2=O)cc1 [Example 6, 4-[2-(4-amino-piperidin-1-yl)-5-(4-methoxy-phenyl)-1-methyl-6-oxo-1,6-dihydro-pyrimidin-4-yl]-2-fluoro-benzonitrile]	< 100 nM	–
0.1 to 1 µM	COc1ccc(-c2c(-c3ccc(C#N)c(F)c3)nc(NC[C@@H]3CCNC3)n(C)c2=O)cc1 [Example 52, 2-luoro-4-{5-(4-methoxy-phenyl)-1-methyl-6-oxo-2-[(3R)-(pyrrolidin-3-ylmethyl)-amino]-1,6-dihydro-pyrimidin-4-yl}-benzonitrile]	–	–
< 0.1 µM	Cn1c(N2CCC(N)CC2)nc(-c2ccc(C#N)c(F)c2)c(-c2ccc3[nH]ccc3c2)c1=O [Example 73, 4-[2-(4-amino-piperidin-1-yl)-5-(1H-indol-5-yl)-1-methyl-6-oxo-1,6-dihydro-pyrimidin-4-yl]-2-fluoro-benzonitrile]	–	–
< 0.1 µM	CNC(=O)c1ccc(-c2c(-c3ccc(C#N)c(F)c3)nc(N3CCC(N)CC3)n(C)c2=O)cn1 [Example 50, 5-[2-(4-amino-piperidin-1-yl)-4-(4-cyano-3-fluoro-phenyl)-1-methyl-6-oxo-1,6-dihydro-pyrimidin-5-yl]-pyridine-2-carboxylic acid methylamide]	–	–
< 0.1 µM	COCc1ccc(-c2c(-c3ccc(C#N)c(F)c3)nc(N3CCC(N)CC3)n(C)c2=O)cc1 [Example 107, 4-[2-(4-aminopiperidin-1-yl)-5-[4-(methoxymethyl)phenyl]-1-methyl-6-oxopyrimidin-4-yl]-2-fluorobenzonitrile]	–	–
0.1 to 1 µM	COc1ccc(-c2c(-c3ccc(C#N)c(F)c3)nc(N3CC(N)C3)n(C)c2=O)cc1 [Example 64, 4-[2-(3-amino-azetidin-1-yl)-5-(4-methoxy-phenyl)-1-methyl-6-oxo-1,6-dihydro-pyrimidin-4-yl]-2-fluoro-benzonitrile]	–	–
< 0.1 µM	COc1ccc(-c2c(-c3ccc(C#N)c(F)c3)nc(N(C)C[C@@H]3CCNC3)n(C)c2=O)cc1 (stereo in doubt) [Example 56, 2-fluoro-4-[5-(4-methoxy-phenyl)-1-methyl-2-(methyl-pyrrolidin-3-ylmethyl-amino)-6-oxo-1,6-dihydro-pyrimidin-4-yl]-benzonitrile]	–	–
< 0.1 µM	COc1ccc(-c2c(-c3ccc(C#N)c(F)c3)nc(N3CCCNCC3)n(C)c2=O)cc1F [Example 46, 4-[2-[1,4]diazepan-1-yl-5-(3-fluoro-4-methoxy-phenyl)-1-methyl-6-oxo-1,6-dihydro-pyrimidin-4-yl]-2-fluoro-benzonitrile]	–	–
< 0.1 µM	CNC1CCN(c2nc(-c3ccc(C#N)c(F)c3)c(-c3ccc(N(C)C)nc3)c(=O)n2C)CC1 [Example 83, 4-[5-(6-dimethylamino-pyridin-3-yl)-1-methyl-2-(4-methylamino-piperidin-1-yl)-6-oxo-1,6-dihydro-pyrimidin-4-yl]-2-fluoro-benzonitrile]	–	–
< 0.1 µM	CN(C)c1ccc(-c2c(-c3ccc(C#N)c(F)c3)nc(N3CCC(N)CC3)n(C)c2=O)cc1 [Example 59, 4-[2-(4-amino-piperidin-1-yl)-5-(4-dimethylamino-phenyl)-1-methyl-6-oxo-1,6-dihydro-pyrimidin-4-yl]-2-fluoro-benzonitrile]	–	–
< 0.1 µM	Cn1c(N2CCC(N)CC2)nc(-c2ccc(C#N)c(F)c2)c(-c2ccc(N3CCOCC3)nc2)c1=O [Example 68, 4-[2-(4-amino-piperidin-1-yl)-1-methyl-5-(6-morpholin-4-yl-pyridin-3-yl)-6-oxo-1,6-dihydro-pyrimidin-4-yl]-2-fluoro-benzonitrile]	–	–
< 0.1 µM	COc1ccc(-c2c(-c3ccc(C#N)c(F)c3)nc(N3CCC(C)(N)CC3)n(C)c2=O)cc1F [Example 32, 4-[2-(4-amino-4-methyl-piperidin-1-yl)-5-(3-fluoro-4-methoxy-phenyl)-1-methyl-6-oxo-1,6-dihydro-pyrimidin-4-yl]-2-fluoro-benzonitrile]	–	–
< 0.1 µM	Cn1c(N2CCC(N)CC2)nc(-c2ccc(C#N)c(F)c2)c(-c2cc(F)cc(F)c2)c1=O [Example 103, 4-[2-(4-aminopiperidin-1-yl)-5-(3,5-difluorophenyl)-1-methyl-6-oxopyrimidin-4-yl]-2-fluorobenzonitrile]	–	–
< 0.1 µM	CN(C)c1ncc(-c2c(-c3ccc(C#N)c(F)c3)nc(N3CCC(N)CC3)n(C)c2=O)cn1 [Example 49, 4-[2-(4-amino-piperidin-1-yl)-2′-dimethylamino-1-methyl-6-oxo-1,6-dihydro-[5,5′]bipyrimidinyl-4-yl]-2-fluoro-benzonitrile]	–	–
< 0.1 µM	Cn1c(N2CCC(N)CC2)nc(-c2ccc(C#N)c(F)c2)c(-c2ccc3occc3c2)c1=O [Example 18, 4-[2-(4-amino-piperidin-1-yl)-5-benzofuran-5-yl-1-methyl-6-oxo-1,6-dihydro-pyrimidin-4-yl]-2-fluoro-benzonitrile]	–	–
< 0.1 µM	CN(C)C1CCN(c2nc(-c3ccc(C#N)c(F)c3)c(-c3ccc4c(cnn4C)c3)c(=O)n2C)CC1 [Example 72, 4-[2-(4-dimethylamino-piperidin-1-yl)-1-methyl-5-(1-methyl-1H-indazol-5-yl)-6-oxo-1,6-dihydro-pyrimidin-4-yl]-2-fluoro-benzonitrile]	–	–
< 0.1 µM	Cn1c(N2CCC(N)CC2)nc(-c2ccc(C#N)c(F)c2)c(-c2ccc(N3CCCC3)nc2)c1=O [Example 60, 4-[2-(4-amino-piperidin-1-yl)-1-methyl-6-oxo-5-(6-pyrrolidin-1-yl-pyridin-3-yl)-1,6-dihydro-pyrimidin-4-yl]-2-fluoro-benzonitrile]	–	–
< 0.1 µM	COc1ccc(-c2c(-c3ccc(C#N)c(F)c3)nc(N3CC[C@H](N)[C@H](F)C3)n(C)c2=O)cc1 [Example 79, 4-[2-((4S,3R)-4-amino-3-fluoro-piperidin-1-yl)-5-(4-methoxy-phenyl)-1-methyl-6-oxo-1,6-dihydro-pyrimidin-4-yl]-2-fluoro-benzonitrile]	–	–
